Test [1] has as its system Staphylococcus aureus. Put plainly: In vitro antibacterial activity against Staphylococcus aureus strain GC 2220, expressed as MIC(minimum inhibitory concentration). The format is functional.
Test [2] concerns Pseudomonas aeruginosa. The test can be described thus: In vitro antibacterial activity against Pseudomonas aeruginosa strain ATCC 27853, expressed as MIC(minimum inhibitory concentration). The format is functional.
The next test concerns Morganella morganii. Put plainly: In vitro antibacterial activity against Morganella morganii strain GC 2213, expressed as MIC(minimum inhibitory concentration). The class given is functional.
Test [3] relates to Acinetobacter calcoaceticus. Put plainly: In vitro antibacterial activity against Acinetobacter calcoaceticus aceticus strain GC 756, expressed as MIC(minimum inhibitory concentration). The class given is functional.
Another test concerns Citrobacter freundii. Put plainly: In vitro antibacterial activity against Citrobacter freundii strain GC 2211, expressed as MIC(minimum inhibitory concentration). The format is functional.
The test system of a further test is Enterococcus faecium. Put plainly: In vitro antibacterial activity against Enterococcus faecium strain GC 1182, expressed as MIC(minimum inhibitory concentration). The format is functional.
Test [4] relates to Escherichia coli. Put plainly: In vitro antibacterial activity against Escherichia coli strain GC 1792, expressed as MIC(minimum inhibitory concentration). The format is functional.
Another test has as its system Enterobacter cloacae. The test can be described thus: In vitro antibacterial activity against Enterobacter cloacae strain GC 2209, expressed as MIC(minimum inhibitory concentration). The format is functional.
Test [5] relates to Stenotrophomonas maltophilia. Put plainly: In vitro antibacterial activity against Xanthomonas maltophilia strain GC 562, expressed as MIC(minimum inhibitory concentration). The class given is functional.
Test [6] deals with Escherichia coli. Put plainly: In vitro antibacterial activity against Escherichia coli strain GC 2205, expressed as MIC(minimum inhibitory concentration). The class given is functional.
The subject of another test is Enterococcus faecalis. Put plainly: In vitro antibacterial activity against Enterococcus faecalis strain GC 842, expressed as MIC(minimum inhibitory concentration). The format is functional.
For test [7], the system named is Escherichia coli. The test can be described thus: In vitro antibacterial activity against Escherichia coli strain ATCC 25922, expressed as MIC(minimum inhibitory concentration). The format is functional.
Test [8] relates to Pseudomonas aeruginosa. The test can be described thus: In vitro antibacterial activity against Pseudomonas aeruginosa strain GC 1544, expressed as MIC(minimum inhibitory concentration). The format is functional.
Test [9] has as its target T1, Dipeptidase 1 (Sus scrofa) (UniProt P22412).
T1 sequence (whole entry): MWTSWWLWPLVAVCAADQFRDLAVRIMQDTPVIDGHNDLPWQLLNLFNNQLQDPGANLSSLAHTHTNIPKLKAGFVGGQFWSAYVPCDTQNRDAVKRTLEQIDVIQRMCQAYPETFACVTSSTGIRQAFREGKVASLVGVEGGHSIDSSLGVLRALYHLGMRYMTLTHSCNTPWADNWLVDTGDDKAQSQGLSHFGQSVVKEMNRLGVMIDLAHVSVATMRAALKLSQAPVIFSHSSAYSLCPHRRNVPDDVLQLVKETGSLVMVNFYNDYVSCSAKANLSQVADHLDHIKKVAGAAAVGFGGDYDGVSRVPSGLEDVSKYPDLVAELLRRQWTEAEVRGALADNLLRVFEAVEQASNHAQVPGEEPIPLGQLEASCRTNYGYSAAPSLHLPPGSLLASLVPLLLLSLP
Put plainly: (§1) Stability towards hog kidney dehydropeptidase (DHP) expressed as relative hydrolysis to imipenem.

Test [10] relates to Staphylococcus aureus. Put plainly: In vitro antibacterial activity against Staphylococcus aureus strain ATCC 29213, expressed as MIC(minimum inhibitory concentration). The class given is functional.
In test [11] the target is T1, Dipeptidase 1 (Sus scrofa). Described as §1. The format is functional, tissue-based.

The structures appear in SMILES notation. Converted amounts (≈) assume the structure as drawn.

Take `COC(=O)[C@H]1O[C@H](CN)[C@H]1SC1=C(C(=O)O)N2C(=O)[C@H]([C@@H](C)O)[C@H]2[C@H]1C`: the MIC (commonly the lowest concentration found to suppress growth) is 32 µg/mL (≈ 82.8 µM) against Staphylococcus aureus [1]; 128 µg/mL (≈ 331 µM) in the test on Pseudomonas aeruginosa [2]; 16 µg/mL (≈ 41.4 µM) against Morganella morganii; 16 µg/mL (≈ 41.4 µM) in [3]; 1 µg/mL (≈ 2.59 µM) with Citrobacter freundii; greater than 128 µg/mL against Enterococcus faecium. Moreover, the MIC with Escherichia coli [4] is 0.5 µg/mL (≈ 1.29 µM); in the test with Enterobacter cloacae, 0.25 µg/mL (≈ 0.647 µM); in test [5], greater than 128 µg/mL; in the test on Escherichia coli [6], 0.5 µg/mL (≈ 1.29 µM); with Enterococcus faecalis, 32 µg/mL (≈ 82.8 µM); in the test on Escherichia coli [7], 0.25 µg/mL (≈ 0.647 µM). Besides, the figures for the MIC against Pseudomonas aeruginosa [8] and in the test on Staphylococcus aureus [10] were greater than 128 µg/mL and 1 µg/mL (≈ 2.59 µM), respectively. The molecule also registered a Relative hydrolysis in [9] of less than 1.

Take `C[C@H]1C(S[C@H]2[C@@H](CN)O[C@@H]2CO)=C(C(=O)O)N2C(=O)[C@H]([C@@H](C)O)C12` (some centres not stated): the MIC in the test on Staphylococcus aureus [1] is 8 µg/mL (≈ 22.3 µM); against Pseudomonas aeruginosa [2] it was 16 µg/mL (≈ 44.6 µM); in the test on Morganella morganii, 2 µg/mL (≈ 5.58 µM); in [3] it was 4 µg/mL (≈ 11.2 µM); against Citrobacter freundii it was 1 µg/mL (≈ 2.79 µM); with Enterococcus faecium, greater than 128 µg/mL. Also, the MIC is 0.25 µg/mL (≈ 0.698 µM) against Escherichia coli [4]; 0.25 µg/mL (≈ 0.698 µM) in the test on Enterobacter cloacae; greater than 128 µg/mL in [5]; 0.25 µg/mL (≈ 0.698 µM) with Escherichia coli [6]; 4 µg/mL (≈ 11.2 µM) against Enterococcus faecalis; 0.12 µg/mL (≈ 0.335 µM) in the test with Escherichia coli [7]. For the same molecule, the MIC against Pseudomonas aeruginosa [8] was 32 µg/mL (≈ 89.3 µM); against Staphylococcus aureus [10], 0.12 µg/mL (≈ 0.335 µM).

Regarding `C[C@@H](O)[C@H]1C(=O)N2C(C(=O)[O-])=C(S[C@H]3[C@@H](C(=O)N(C)C)O[C@@H]3CO)[C@H](C)[C@H]12.[Na+]`, the MIC in the test on Staphylococcus aureus [1] was greater than 64 µg/mL; against Pseudomonas aeruginosa [2], greater than 64 µg/mL; in the test on Morganella morganii, 4 µg/mL; in test [3], 32 µg/mL; in the test on Citrobacter freundii, 8 µg/mL; with Enterococcus faecium, greater than 64 µg/mL. For the same molecule, the MIC is 1 µg/mL in the test on Escherichia coli [4]; 2 µg/mL with Enterobacter cloacae; greater than 64 µg/mL in test [5]; 0.5 µg/mL in the test with Escherichia coli [6]; 32 µg/mL against Enterococcus faecalis; 0.5 µg/mL in the test with Escherichia coli [7]. For the same molecule, the MIC against Pseudomonas aeruginosa [8] was greater than 64 µg/mL; against Staphylococcus aureus [10] it was 4 µg/mL.

Turning to `C[C@H]1C(S[C@@H]2[C@@H](C)O[C@@H]2CN)=C(C(=O)[O-])N2C(=O)[C@H]([C@@H](C)O)C12.[Na+]` (some centres not stated), the MIC is 8 µg/mL in the test on Staphylococcus aureus [1]; 64 µg/mL in the test with Pseudomonas aeruginosa [2]; 4 µg/mL against Morganella morganii; 16 µg/mL in test [3]; 1 µg/mL against Citrobacter freundii; greater than 128 µg/mL in the test on Enterococcus faecium. The MIC with Escherichia coli [4] was 0.12 µg/mL; in the test on Enterobacter cloacae, 0.5 µg/mL; in [5] it was greater than 128 µg/mL; with Escherichia coli [6], 0.25 µg/mL; in the test on Enterococcus faecalis, 4 µg/mL; in the test with Escherichia coli [7] it was 0.12 µg/mL. In addition, the MIC in the test with Pseudomonas aeruginosa [8] worked out at 128 µg/mL; in the test with Staphylococcus aureus [10], 0.12 µg/mL.

With `C[C@@H](O)[C@H]1C(=O)N2C(C(=O)O)=C(SCCNC=N)C[C@H]12` [IMIPENEM ANHYDROUS], the MIC in the test with Staphylococcus aureus [1] was 1 µg/mL (≈ 3.34 µM); against Pseudomonas aeruginosa [2], 2 µg/mL (≈ 6.68 µM); with Morganella morganii, 2 µg/mL (≈ 6.68 µM); in test [3], 0.5 µg/mL (≈ 1.67 µM); against Citrobacter freundii, 0.5 µg/mL (≈ 1.67 µM); against Enterococcus faecium, 128 µg/mL (≈ 428 µM). Further, the MIC against Escherichia coli [4] was 0.12 µg/mL (≈ 0.401 µM); with Enterobacter cloacae it was no more than 0.06 µg/mL; in [5], greater than 128 µg/mL; against Escherichia coli [6] it was 0.12 µg/mL (≈ 0.401 µM); against Enterococcus faecalis, 1 µg/mL (≈ 3.34 µM); against Escherichia coli [7], 0.12 µg/mL (≈ 0.401 µM). For the same molecule, the figures for the MIC against Pseudomonas aeruginosa [8] and in the test with Staphylococcus aureus [10] were 16 µg/mL (≈ 53.4 µM) and no more than 0.06 µg/mL, respectively. In [9], this molecule came in with a Relative hydrolysis of 100.

As to `COC(=O)[C@H]1O[C@H](CO)[C@H]1SC1=C(C(=O)[O-])N2C(=O)[C@H]([C@@H](C)O)[C@H]2[C@H]1C.[Na+]`, the MIC was 32 µg/mL against Staphylococcus aureus [1]; greater than 128 µg/mL in the test on Pseudomonas aeruginosa [2]; 4 µg/mL in the test on Morganella morganii; 32 µg/mL in [3]; 16 µg/mL in the test on Citrobacter freundii; greater than 128 µg/mL in the test with Enterococcus faecium. Also, the MIC in the test with Escherichia coli [4] is 1 µg/mL; in the test on Enterobacter cloacae, 4 µg/mL; in test [5] it was greater than 128 µg/mL; against Escherichia coli [6], 0.25 µg/mL; with Enterococcus faecalis, 16 µg/mL; against Escherichia coli [7] it was 0.5 µg/mL. The MIC with Pseudomonas aeruginosa [8] is greater than 128 µg/mL; against Staphylococcus aureus [10], 2 µg/mL. Besides, the Relative hydrolysis in test [9] was less than 1.

Consider `COC(=O)[C@H]1O[C@H](COS(=O)(=O)c2ccc(C)cc2)[C@H]1SC1=C(C(=O)[O-])N2C(=O)[C@H]([C@@H](C)O)[C@H]2[C@H]1C.[Na+]`, for which the MIC with Staphylococcus aureus [1] was 64 µg/mL; in the test on Pseudomonas aeruginosa [2] it was greater than 128 µg/mL; with Morganella morganii, greater than 128 µg/mL; in [3], greater than 128 µg/mL; in the test with Citrobacter freundii, greater than 128 µg/mL; in the test with Enterococcus faecium, greater than 128 µg/mL. Further, the MIC against Escherichia coli [4] is greater than 128 µg/mL; with Enterobacter cloacae, greater than 128 µg/mL; in test [5] it was greater than 128 µg/mL; against Escherichia coli [6], 2 µg/mL; in the test on Enterococcus faecalis, 64 µg/mL; with Escherichia coli [7] it was greater than 128 µg/mL. Moreover, the values for the MIC in the test on Pseudomonas aeruginosa [8] and against Staphylococcus aureus [10] were greater than 128 µg/mL and 4 µg/mL, respectively. In [9], this molecule came in with a Relative hydrolysis of less than 1.

As to `CC1C(S[C@@H]2CCO[C@@H]2CN)=C(C(=O)O)N2C(=O)[C@H]([C@@H](C)O)[C@@H]12` (single isomer, unassigned), the MIC in the test with Staphylococcus aureus [1] is 2 µg/mL (≈ 5.84 µM); in the test on Pseudomonas aeruginosa [2] it was 4 µg/mL (≈ 11.7 µM); in the test with Morganella morganii, 0.5 µg/mL (≈ 1.46 µM); in test [3] it was 2 µg/mL (≈ 5.84 µM); in the test on Citrobacter freundii, 0.12 µg/mL (≈ 0.35 µM); against Enterococcus faecium it was 64 µg/mL (≈ 187 µM). Also, the MIC against Escherichia coli [4] is no more than 0.06 µg/mL; against Enterobacter cloacae it was less than 0.06 µg/mL; in [5], greater than 128 µg/mL; against Escherichia coli [6], no more than 0.06 µg/mL; against Enterococcus faecalis it was 1 µg/mL (≈ 2.92 µM); against Escherichia coli [7] it was no more than 0.06 µg/mL. For the same molecule, the figures for the minimum inhibitory concentration (MIC) in the test on Pseudomonas aeruginosa [8] and against Staphylococcus aureus [10] were 16 µg/mL (≈ 46.7 µM) and no more than 0.06 µg/mL, respectively. In test [11], this molecule displayed a Relative hydrolysis of 8.5.
